According to US9302999B2, “Substituted triazoles as herbicides” (E. I. DU PONT DE NEMOURS AND COMPANY, priority 2012, dated 2016):

How the values were obtained:
Format in all cases: in vivo
[1] = tested on: arrowleaf sida (Sida rhombifolia); assay: Test E pre-/postemergence: arrowleaf sida; details: Preemergence, scale 0 to 100
Description: (§1) Seeds of plant species selected from corn (Zea mays), soybean (Glycine max), velvetleaf (Abutilon theophrasti), lambsquarters (Chenopodium album), poinsettia, wild (wild poinsettia, Euphorbia heterophylla), pigweed, palmer (palmer pigweed, Amaranthus palmeri), waterhemp (common waterhemp, Amaranthus rudis), smartweed (ladysthumb smartweed, Polygonum persicaria), surinam grass (Brachiaria decumbens), crabgrass, large (large crabgrass, Digitaria sanguinalis), crabgrass, Brazil (Brazilian crabgrass, Digitaria horizontalis), panicum, fall (fall panicum, Panicum dichotomiflorum), foxtail, giant (giant foxtail, Setaria faberii), foxtail, green (green foxtail, Setaria viridis), goosegrass (Eleusine indica), johnsongrass (Sorghum halepense), ragweed (common ragweed, Ambrosia elation), barnyardgrass (Echinochloa crus-galli), sandbur (southern sandbur, Cenchrus echinatus), arrowleaf sida (Sida rhombifolia), ryegrass, Italian (Italian ryegrass, Lolium multiflorum), dayflower, (VA) (Virginia dayflower, Commelina virginica), field bindweed (Convolvulus arvensis), cocklebur (common cocklebur, Xanthium strumarium), morningglory (Ipomoea coccinea), nightshade (eastern black nightshade, Solanum ptycanthum), kochia (Kochia scoparia), nutsedge, yellow (yellow nutsedge, Cyperus esculentus) and beggarticks (hairy beggarticks, Bidens pilosa) were planted into a silt loam soil and treated preemergence with test chemicals formulated in a non-phytotoxic solvent mixture which included a surfactant. At the same time, plants selected from these crop and weed species were planted in pots containing a growing medium comprising spaghnum peat moss, vermiculite, wetting agent and starter nutrients and treated with postemergence applications of some of the test chemicals formulated in the same manner. Plants ranged in height from 2 to 18 cm for postemergence treatments (1- to 4-leaf stage).
(§2) Treated plants and controls were maintained in a greenhouse for 14 to 21 days, after which time all species were compared to controls and visually evaluated. Plant response ratings, summarized in Table E, are based on a scale of 0 to 100 where 0 is no effect and 100 is complete control. A dash (-) response means no test result.

[2] = tested on: barnyardgrass (Echinochloa crus-galli); assay: Test E pre-/postemergence: barnyardgrass; details: Preemergence, scale 0 to 100
Description: as §1, §2

[3] = tested on: sandbur (southern sandbur, Cenchrus echinatus); assay: Test E pre-/postemergence: sandbur; details: Preemergence, scale 0 to 100
Description: as §1, §2

[4] = tested on: beggarticks (hairy beggarticks, Bidens pilosa); assay: Test E pre-/postemergence: beggarticks; details: Preemergence, scale 0 to 100
Description: as §1, §2

[5] = tested on: nutsedge, yellow (yellow nutsedge, Cyperus esculentus); assay: Test E pre-/postemergence: nutsedge, yellow; details: Preemergence, scale 0 to 100
Description: as §1, §2

[6] = tested on: foxtail, giant (giant foxtail, Setaria faberii); assay: Test E pre-/postemergence: foxtail, giant; details: Preemergence, scale 0 to 100
Description: as §1, §2

corn (Zea mays) = assay: Test E pre-/postemergence: corn; details: Preemergence, scale 0 to 100
Description: as §1, §2

[7] = tested on: cocklebur (common cocklebur, Xanthium strumarium); assay: Test E pre-/postemergence: cocklebur; details: Preemergence, scale 0 to 100
Description: as §1, §2

[8] = tested on: lambsquarters (Chenopodium album); assay: Test E pre-/postemergence: lambsquarters; details: Preemergence, scale 0 to 100
Description: as §1, §2

[9] = tested on: crabgrass, Brazil (Brazilian crabgrass, Digitaria horizontalis); assay: Test F pre-/postemergence: crabgrass, Brazil
Description: Seeds of plant species selected from corn (Zea mays), soybean (Glycine max), velvetleaf (Abutilon theophrasti), lambsquarters (Chenopodium album), poinsettia, wild (wild poinsettia, Euphorbia heterophylla), pigweed, palmer (palmer pigweed, Amaranthus palmeri), waterhemp (common waterhemp, Amaranthus rudis), surinam grass (Brachiaria decumbens), crabgrass, Brazil (Brazilian crabgrass, Digitaria horizontalis), panicum, fall (fall panicum Panicum dichotomiflorum), crabgrass, large (large crabgrass, Digitaria sanguinalis), foxtail, giant (giant foxtail, Setaria faberii), foxtail, green (green foxtail Setaria viridis), goosegrass (Eleusine indica), ragweed (common ragweed, Ambrosia elatior), barnyardgrass (Echinochloa crus-galli), sandbur (southern sandbur, Cenchrus echinatus), arrowleaf sida (Sida rhombifolia), ryegrass, Italian (Italian ryegrass, Lolium multiflorum), dayflower, VA (Virginia (VA) dayflower, Commelina virginica), field bindweed (Convolvulus arvensis), cocklebur (common cocklebur, Xanthium strumarium), morningglory (Ipomoea coccinea), nightshade (eastern black nightshade, Solanum ptycanthum), kochia (Kochia scoparia), nutsedge, yellow (yellow nutsedge, Cyperus esculentus), johnsongrass (Sorghum halepense), smartweed (ladysthumb smartweed, Polygonum persicaria), and beggarticks (hairy beggarticks, Bidens pilosa), were planted into a silt loam soil and treated preemergence with test chemicals formulated in a non-phytotoxic solvent mixture which included a surfactant. At the same time, plants selected from these crop and weed species and also pigweed (Amaranthus retroflexus), waterhemp_RES1 (ALS/Triazine resistant common waterhemp, Amaranthus rudis) and waterhemp_RES2 (ALS/HPPD resistant common waterhemp, Amaranthus rudis) were planted in pots containing a planting medium comprising spaghnum peat moss, vermiculite, wetting agent and starter nutrients treated with postemergence applications of some of the test chemicals formulated in the same manner. Plants ranged in height from 2 to 18 cm for postemergence treatments (1- to 4-leaf stage).
as §2

[10] = Preemergence, 16 g ai/ha, scale 0 to 100, 0 no effect, 100 complete control
[11] = Preemergence, 31 g ai/ha, scale 0 to 100, 0 no effect, 100 complete control
[12] = Preemergence, 62 g ai/ha, scale 0 to 100
[13] = Preemergence, 125 g ai/ha, scale 0 to 100
[14] = Preemergence, 250 g ai/ha, scale 0 to 100

FC(F)(F)COc1nn(-c2ccc(C(F)(F)F)cc2)nc1Cc1ccnc(C(F)(F)F)c1 [Compound 14, 4-[[5-(2,2,2-trifluoroethoxy)-2-[4-(trifluoromethyl)phenyl]-2H-1,2,3-triazol-4-yl]methyl]-2-(trifluoromethyl)pyridine]
80: Plant response rating: Arrowleaf Sida ([1]; 250 g ai/ha) | Plant response rating: Lambsquarters ([8]; 16 g ai/ha)
75: Plant response rating: Foxtail, Giant ([6]; 31 g ai/ha)
0: Plant response rating: Nutsedge, Yellow ([5]; 16 g ai/ha) | Plant response rating: Nutsedge, Yellow ([5]; 31 g ai/ha) | Plant response rating: Nutsedge, Yellow ([5]; 62 g ai/ha) | Plant response rating: Nutsedge, Yellow ([5]; 125 g ai/ha) | Plant response rating: Corn (corn (Zea mays); 16 g ai/ha) | Plant response rating: Corn (corn (Zea mays); 31 g ai/ha) | Plant response rating: Corn (corn (Zea mays); 62 g ai/ha) | Plant response rating: Corn (corn (Zea mays); 125 g ai/ha) | Plant response rating: Corn (corn (Zea mays); 250 g ai/ha) | Plant response rating: Cocklebur ([7]; 16 g ai/ha) | Plant response rating: Cocklebur ([7]; 31 g ai/ha) | Plant response rating: Cocklebur ([7]; 62 g ai/ha)
10: Plant response rating: Arrowleaf Sida ([1]; 16 g ai/ha)
50: Plant response rating: Sandbur ([3]; 125 g ai/ha) | Plant response rating: Sandbur ([3]; 250 g ai/ha) | Plant response rating: Beggarticks ([4]; 31 g ai/ha) | Plant response rating: Foxtail, Giant ([6]; 16 g ai/ha) | Plant response rating: Cocklebur ([7]; 125 g ai/ha)
15: Plant response rating: Barnyardgrass ([2]; 31 g ai/ha) | Plant response rating: Sandbur ([3]; 62 g ai/ha) | Plant response rating: Nutsedge, Yellow ([5]; 250 g ai/ha)
65: Plant response rating: Arrowleaf Sida ([1]; 125 g ai/ha)
5: Plant response rating: Barnyardgrass ([2]; 16 g ai/ha) | Plant response rating: Sandbur ([3]; 16 g ai/ha) | Plant response rating: Sandbur ([3]; 31 g ai/ha) | Plant response rating: Beggarticks ([4]; 16 g ai/ha)
98: Plant response rating: Beggarticks ([4]; 125 g ai/ha) | Plant response rating: Foxtail, Giant ([6]; 62 g ai/ha) | Plant response rating: Lambsquarters ([8]; 31 g ai/ha) | Plant response rating: Lambsquarters ([8]; 62 g ai/ha) | Plant response rating: Lambsquarters ([8]; 125 g ai/ha) | Plant response rating: Lambsquarters ([8]; 250 g ai/ha)
100: Plant response rating: Beggarticks ([4]; 250 g ai/ha) | Plant response rating: Foxtail, Giant ([6]; 125 g ai/ha) | Plant response rating: Foxtail, Giant ([6]; 250 g ai/ha)
30: Plant response rating: Arrowleaf Sida ([1]; 31 g ai/ha) | Plant response rating: Arrowleaf Sida ([1]; 62 g ai/ha)
35: Plant response rating: Barnyardgrass ([2]; 62 g ai/ha)
90: Plant response rating: Beggarticks ([4]; 62 g ai/ha)
60: Plant response rating: Barnyardgrass ([2]; 125 g ai/ha) | Plant response rating: Barnyardgrass ([2]; 250 g ai/ha)

Cc1nn(-c2ccc(C(F)(F)F)cn2)nc1Oc1ccnc(C(F)(F)F)c1 [Compound 23]
25: Plant response rating: Sandbur ([3]; 125 g ai/ha)
35: Plant response rating: Arrowleaf Sida ([1]; 250 g ai/ha)
15: Plant response rating: Nutsedge, Yellow ([5]; 125 g ai/ha) | Plant response rating: Nutsedge, Yellow ([5]; 250 g ai/ha)
20: Plant response rating: Barnyardgrass ([2]; 125 g ai/ha) | Plant response rating: Barnyardgrass ([2]; 250 g ai/ha) | Plant response rating: Corn (corn (Zea mays); 250 g ai/ha)
98: Plant response rating: Lambsquarters ([8]; 125 g ai/ha) | Plant response rating: Lambsquarters ([8]; 250 g ai/ha)
5: Plant response rating: Foxtail, Giant ([6]; 31 g ai/ha) | Plant response rating: Foxtail, Giant ([6]; 62 g ai/ha)
100: Plant response rating: Foxtail, Giant ([6]; 125 g ai/ha) | Plant response rating: Foxtail, Giant ([6]; 250 g ai/ha)
0: Plant response rating: Arrowleaf Sida ([1]; 16 g ai/ha) | Plant response rating: Arrowleaf Sida ([1]; 31 g ai/ha) | Plant response rating: Arrowleaf Sida ([1]; 62 g ai/ha) | Plant response rating: Arrowleaf Sida ([1]; 125 g ai/ha) | Plant response rating: Barnyardgrass ([2]; 16 g ai/ha) | Plant response rating: Barnyardgrass ([2]; 31 g ai/ha) | Plant response rating: Barnyardgrass ([2]; 62 g ai/ha) | Plant response rating: Sandbur ([3]; 16 g ai/ha) | Plant response rating: Sandbur ([3]; 31 g ai/ha) | Plant response rating: Sandbur ([3]; 62 g ai/ha) | Plant response rating: Nutsedge, Yellow ([5]; 16 g ai/ha) | Plant response rating: Nutsedge, Yellow ([5]; 31 g ai/ha) | Plant response rating: Nutsedge, Yellow ([5]; 62 g ai/ha) | Plant response rating: Foxtail, Giant ([6]; 16 g ai/ha) | Plant response rating: Corn (corn (Zea mays); 16 g ai/ha) | Plant response rating: Corn (corn (Zea mays); 31 g ai/ha) | Plant response rating: Corn (corn (Zea mays); 62 g ai/ha) | Plant response rating: Corn (corn (Zea mays); 125 g ai/ha) | Plant response rating: Cocklebur ([7]; 16 g ai/ha) | Plant response rating: Cocklebur ([7]; 31 g ai/ha) | Plant response rating: Cocklebur ([7]; 62 g ai/ha) | Plant response rating: Cocklebur ([7]; 125 g ai/ha) | Plant response rating: Cocklebur ([7]; 250 g ai/ha) | Plant response rating: Lambsquarters ([8]; 31 g ai/ha) | Plant response rating: Lambsquarters ([8]; 62 g ai/ha)
65: Plant response rating: Sandbur ([3]; 250 g ai/ha)

Cc1nn(-c2ccc(C(F)(F)F)c(F)c2)nc1Oc1ccnc(C(F)(F)F)c1 [Compound 148]
100: Plant response rating, Crabgrass, Brazil [9, 10] | Plant response rating, Crabgrass, Brazil [9, 11] | Plant response rating, Crabgrass, Brazil [9, 12] | Plant response rating, Crabgrass, Brazil [9, 13] | Plant response rating, Crabgrass, Brazil [9, 14]

CCc1nn(-c2ccc(F)cc2)nc1Cc1ccnc(C(F)(F)F)c1 [Compound 154]
75: Plant response rating, Crabgrass, Brazil [9, 10]
100: Plant response rating, Crabgrass, Brazil [9, 11] | Plant response rating, Crabgrass, Brazil [9, 12] | Plant response rating, Crabgrass, Brazil [9, 13] | Plant response rating, Crabgrass, Brazil [9, 14]

CCc1nn(-c2ccc(C(F)(F)F)cc2)nc1Cc1ccnc(C(F)(F)F)c1 [Compound 155]
100: Plant response rating, Crabgrass, Brazil [9, 12] | Plant response rating, Crabgrass, Brazil [9, 13] | Plant response rating, Crabgrass, Brazil [9, 14]

CCc1nn(-c2ccc(F)c(F)c2)nc1Oc1ccnc(C(F)(F)F)c1 [Compound 171]
0: Plant response rating, Crabgrass, Brazil [9, 10]
100: Plant response rating, Crabgrass, Brazil [9, 12] | Plant response rating, Crabgrass, Brazil [9, 13] | Plant response rating, Crabgrass, Brazil [9, 14]
98: Plant response rating, Crabgrass, Brazil [9, 11]

CCCc1nn(-c2ccc(F)c(F)c2)nc1Oc1ccnc(C(F)(F)F)c1 [Compound 172]
90: Plant response rating, Crabgrass, Brazil ([9]; Postemergence, 250 g ai/ha, scale 0 to 100)
70: Plant response rating, Crabgrass, Brazil ([9]; Postemergence, 125 g ai/ha, scale 0 to 100)
100: Plant response rating, Crabgrass, Brazil [9, 11] | Plant response rating, Crabgrass, Brazil [9, 13] | Plant response rating, Crabgrass, Brazil [9, 14]
50: Plant response rating, Crabgrass, Brazil ([9]; Postemergence, 31 g ai/ha, scale 0 to 100)
